In ChEMBL document CHEMBL1142734, “Biological properties of D- and L-1-deoxyazasugars” (J Med Chem, 2005):

Legend:
[1] = molecular target: T1, Beta-mannosidase (Rattus norvegicus) (UniProt Q4FZV0); assay: Percent inhibition of beta-mannosidase of rat epididymis at 1000 uM
T1 sequence (whole entry): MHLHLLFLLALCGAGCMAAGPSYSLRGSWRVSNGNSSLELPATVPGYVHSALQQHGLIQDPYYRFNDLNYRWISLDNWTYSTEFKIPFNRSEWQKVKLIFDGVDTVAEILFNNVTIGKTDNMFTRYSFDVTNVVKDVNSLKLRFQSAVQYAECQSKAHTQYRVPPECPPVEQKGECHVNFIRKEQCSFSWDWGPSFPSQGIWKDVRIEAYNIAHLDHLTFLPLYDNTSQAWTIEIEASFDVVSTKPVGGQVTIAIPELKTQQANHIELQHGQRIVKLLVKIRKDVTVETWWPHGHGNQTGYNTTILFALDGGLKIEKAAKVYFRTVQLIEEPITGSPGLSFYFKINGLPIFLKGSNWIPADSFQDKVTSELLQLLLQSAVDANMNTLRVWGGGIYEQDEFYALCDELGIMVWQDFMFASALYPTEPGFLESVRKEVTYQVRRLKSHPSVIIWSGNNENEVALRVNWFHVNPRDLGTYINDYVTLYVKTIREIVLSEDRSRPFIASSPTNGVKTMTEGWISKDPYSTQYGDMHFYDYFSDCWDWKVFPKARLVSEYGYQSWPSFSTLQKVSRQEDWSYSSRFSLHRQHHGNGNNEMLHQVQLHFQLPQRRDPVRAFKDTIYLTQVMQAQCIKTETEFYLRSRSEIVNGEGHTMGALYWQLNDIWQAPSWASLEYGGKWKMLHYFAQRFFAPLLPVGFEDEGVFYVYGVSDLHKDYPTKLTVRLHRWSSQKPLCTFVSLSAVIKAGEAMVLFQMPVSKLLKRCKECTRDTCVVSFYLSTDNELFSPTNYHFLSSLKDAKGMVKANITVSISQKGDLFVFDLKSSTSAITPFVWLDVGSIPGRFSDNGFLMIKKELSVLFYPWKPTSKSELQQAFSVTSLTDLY

[2] = molecular target: T2, Beta-galactosidase (Rattus norvegicus) (UniProt D3ZUM4); assay: Percent inhibition of beta-galactosidase of rat epididymis at 1000 uM
T2 sequence (whole entry): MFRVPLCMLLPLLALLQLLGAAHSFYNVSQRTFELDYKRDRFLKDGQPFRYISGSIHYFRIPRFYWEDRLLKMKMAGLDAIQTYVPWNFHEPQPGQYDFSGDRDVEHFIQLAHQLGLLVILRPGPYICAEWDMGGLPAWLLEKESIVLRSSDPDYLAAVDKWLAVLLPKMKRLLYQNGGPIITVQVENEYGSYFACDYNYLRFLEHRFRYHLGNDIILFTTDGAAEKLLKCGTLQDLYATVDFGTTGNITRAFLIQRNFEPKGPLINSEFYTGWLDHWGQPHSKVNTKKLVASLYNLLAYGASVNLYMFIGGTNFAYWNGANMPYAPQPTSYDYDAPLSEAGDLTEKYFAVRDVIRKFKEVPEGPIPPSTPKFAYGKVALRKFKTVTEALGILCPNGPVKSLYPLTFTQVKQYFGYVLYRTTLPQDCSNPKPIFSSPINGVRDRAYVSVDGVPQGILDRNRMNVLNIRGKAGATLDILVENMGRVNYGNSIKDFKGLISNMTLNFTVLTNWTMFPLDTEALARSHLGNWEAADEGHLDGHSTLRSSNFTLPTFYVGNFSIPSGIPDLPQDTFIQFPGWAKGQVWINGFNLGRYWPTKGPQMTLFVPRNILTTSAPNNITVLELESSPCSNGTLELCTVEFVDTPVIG

[3] = molecular target: T3, Tissue alpha-L-fucosidase (Bos taurus) (UniProt Q2KIM0); details: 1000 uM
T3 sequence (whole entry): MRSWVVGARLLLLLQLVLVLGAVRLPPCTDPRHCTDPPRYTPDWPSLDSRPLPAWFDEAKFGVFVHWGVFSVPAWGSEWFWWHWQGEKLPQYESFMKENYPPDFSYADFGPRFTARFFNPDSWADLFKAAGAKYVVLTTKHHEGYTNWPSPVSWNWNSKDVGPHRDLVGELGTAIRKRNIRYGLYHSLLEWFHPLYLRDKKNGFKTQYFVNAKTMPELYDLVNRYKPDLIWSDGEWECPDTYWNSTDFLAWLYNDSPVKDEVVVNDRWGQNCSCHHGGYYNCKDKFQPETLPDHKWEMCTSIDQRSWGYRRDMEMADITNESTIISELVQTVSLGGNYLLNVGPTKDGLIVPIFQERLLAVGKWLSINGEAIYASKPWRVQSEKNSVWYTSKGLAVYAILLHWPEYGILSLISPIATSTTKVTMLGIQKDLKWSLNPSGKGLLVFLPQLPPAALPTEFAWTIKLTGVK

[4] = molecular target: T4, Beta-galactosidase (Bos taurus) (UniProt Q58D55); assay: Percent inhibition of beta-galactosidase of bovine liver at 1000 uM
T4 sequence (whole entry): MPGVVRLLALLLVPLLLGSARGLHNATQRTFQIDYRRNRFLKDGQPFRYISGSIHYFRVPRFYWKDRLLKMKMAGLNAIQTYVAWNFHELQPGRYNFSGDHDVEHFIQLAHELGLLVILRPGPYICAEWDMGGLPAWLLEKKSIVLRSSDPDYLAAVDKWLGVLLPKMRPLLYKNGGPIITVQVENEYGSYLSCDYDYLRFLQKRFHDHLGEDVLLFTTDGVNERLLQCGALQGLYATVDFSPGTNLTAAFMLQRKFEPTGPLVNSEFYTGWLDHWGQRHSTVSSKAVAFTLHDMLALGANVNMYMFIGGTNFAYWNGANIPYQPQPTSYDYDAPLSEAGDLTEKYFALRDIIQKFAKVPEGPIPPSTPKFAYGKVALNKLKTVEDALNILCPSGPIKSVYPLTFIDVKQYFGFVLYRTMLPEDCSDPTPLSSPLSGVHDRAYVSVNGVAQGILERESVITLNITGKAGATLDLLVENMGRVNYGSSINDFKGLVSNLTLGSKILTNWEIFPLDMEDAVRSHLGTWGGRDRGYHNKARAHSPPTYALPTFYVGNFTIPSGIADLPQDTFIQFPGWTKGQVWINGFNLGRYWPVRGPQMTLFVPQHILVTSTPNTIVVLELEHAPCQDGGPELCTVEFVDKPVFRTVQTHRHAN

[5] = molecular target: Alpha-galactosidase (Coffea arabica) (UniProt Q5DUH8); details: 1000 uM
[6] = molecular target: Sucrase-isomaltase, intestinal (Rattus norvegicus) (UniProt P23739); details: 1000 uM
[7] = molecular target: T5, Alpha-galactosidase C (Aspergillus niger) (UniProt Q9UUZ4); assay: Percent inhibition of alpha-galactosidase of Aspergillus niger at 1000 uM
T5 sequence (whole entry): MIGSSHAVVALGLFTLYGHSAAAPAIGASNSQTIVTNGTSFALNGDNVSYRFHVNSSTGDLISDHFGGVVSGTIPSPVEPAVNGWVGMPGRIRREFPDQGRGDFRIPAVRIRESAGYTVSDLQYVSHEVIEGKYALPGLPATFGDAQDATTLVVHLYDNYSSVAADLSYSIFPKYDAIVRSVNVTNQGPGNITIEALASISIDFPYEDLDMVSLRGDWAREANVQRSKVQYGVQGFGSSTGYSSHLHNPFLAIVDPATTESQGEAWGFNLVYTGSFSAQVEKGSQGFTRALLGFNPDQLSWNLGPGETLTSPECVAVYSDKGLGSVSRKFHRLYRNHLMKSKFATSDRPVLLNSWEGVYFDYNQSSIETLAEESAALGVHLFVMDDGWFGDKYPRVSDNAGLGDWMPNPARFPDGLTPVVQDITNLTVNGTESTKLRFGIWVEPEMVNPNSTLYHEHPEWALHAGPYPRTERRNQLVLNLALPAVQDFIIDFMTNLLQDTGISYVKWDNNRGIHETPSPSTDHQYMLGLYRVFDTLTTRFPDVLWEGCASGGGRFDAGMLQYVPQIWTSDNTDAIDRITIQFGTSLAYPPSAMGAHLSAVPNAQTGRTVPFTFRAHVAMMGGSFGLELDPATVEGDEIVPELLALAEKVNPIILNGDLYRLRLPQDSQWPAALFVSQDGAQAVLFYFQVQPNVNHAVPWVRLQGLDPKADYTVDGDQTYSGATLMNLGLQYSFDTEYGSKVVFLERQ

[8] = molecular target: T6, Tissue alpha-L-fucosidase (Bos taurus, UniProt Q2KIM0); assay: Ki value against bovine alpha-L-fucosidase
T6 sequence (Q2KIM0 whole entry): T3 sequence (whole entry)

Chain of Sucrase-isomaltase, intestinal (Rattus norvegicus) (P23739 1-1013 limits assumed): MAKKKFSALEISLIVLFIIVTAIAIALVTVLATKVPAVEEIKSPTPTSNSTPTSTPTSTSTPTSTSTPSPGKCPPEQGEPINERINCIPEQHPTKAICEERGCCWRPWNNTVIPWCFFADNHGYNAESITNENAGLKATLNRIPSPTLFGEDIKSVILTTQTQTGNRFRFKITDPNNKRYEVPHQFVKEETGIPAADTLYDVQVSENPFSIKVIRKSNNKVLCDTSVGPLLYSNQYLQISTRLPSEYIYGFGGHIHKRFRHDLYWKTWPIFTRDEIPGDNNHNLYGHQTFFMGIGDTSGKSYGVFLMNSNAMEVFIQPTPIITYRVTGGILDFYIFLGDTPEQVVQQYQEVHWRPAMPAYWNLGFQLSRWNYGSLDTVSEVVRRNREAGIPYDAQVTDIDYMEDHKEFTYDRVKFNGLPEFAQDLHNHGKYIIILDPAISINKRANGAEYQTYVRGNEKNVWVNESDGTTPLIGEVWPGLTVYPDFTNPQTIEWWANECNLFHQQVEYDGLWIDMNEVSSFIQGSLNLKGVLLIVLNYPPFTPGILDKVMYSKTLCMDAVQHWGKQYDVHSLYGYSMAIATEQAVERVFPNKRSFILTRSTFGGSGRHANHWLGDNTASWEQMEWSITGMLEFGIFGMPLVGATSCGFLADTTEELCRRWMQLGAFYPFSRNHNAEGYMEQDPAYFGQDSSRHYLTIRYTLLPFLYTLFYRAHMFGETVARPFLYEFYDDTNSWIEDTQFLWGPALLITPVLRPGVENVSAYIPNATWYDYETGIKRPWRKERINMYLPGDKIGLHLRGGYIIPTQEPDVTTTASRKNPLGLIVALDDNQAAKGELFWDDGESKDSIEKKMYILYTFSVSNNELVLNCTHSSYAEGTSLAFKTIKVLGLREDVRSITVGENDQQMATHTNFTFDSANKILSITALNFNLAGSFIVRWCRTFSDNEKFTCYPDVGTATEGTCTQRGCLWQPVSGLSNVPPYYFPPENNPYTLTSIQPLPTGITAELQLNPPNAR
Chain of Sucrase-isomaltase, intestinal (Rattus norvegicus) (P23739 1014-1841 limits assumed): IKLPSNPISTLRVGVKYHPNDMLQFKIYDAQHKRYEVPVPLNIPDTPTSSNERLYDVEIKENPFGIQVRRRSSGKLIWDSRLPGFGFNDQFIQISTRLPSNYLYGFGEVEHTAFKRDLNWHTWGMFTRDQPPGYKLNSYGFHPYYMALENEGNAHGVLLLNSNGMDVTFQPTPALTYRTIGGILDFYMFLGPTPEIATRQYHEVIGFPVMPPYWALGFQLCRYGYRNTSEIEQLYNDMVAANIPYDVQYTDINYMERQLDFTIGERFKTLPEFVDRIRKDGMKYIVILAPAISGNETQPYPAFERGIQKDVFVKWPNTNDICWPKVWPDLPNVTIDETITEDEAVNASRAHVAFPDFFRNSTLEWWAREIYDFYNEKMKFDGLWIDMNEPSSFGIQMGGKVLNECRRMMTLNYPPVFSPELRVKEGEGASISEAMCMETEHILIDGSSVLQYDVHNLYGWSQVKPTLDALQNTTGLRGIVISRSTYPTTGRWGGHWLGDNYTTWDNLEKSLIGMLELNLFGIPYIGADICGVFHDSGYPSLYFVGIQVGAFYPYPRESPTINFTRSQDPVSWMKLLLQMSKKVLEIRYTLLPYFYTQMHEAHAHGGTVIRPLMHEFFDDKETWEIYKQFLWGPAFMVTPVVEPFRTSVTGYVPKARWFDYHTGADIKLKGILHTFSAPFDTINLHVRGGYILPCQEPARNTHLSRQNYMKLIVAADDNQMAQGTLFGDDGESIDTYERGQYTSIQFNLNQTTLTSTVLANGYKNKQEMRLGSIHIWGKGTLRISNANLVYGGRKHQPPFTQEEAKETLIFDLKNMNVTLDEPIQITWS
Chain of Alpha-galactosidase (Coffea arabica) (Q5DUH8 as listed by the source): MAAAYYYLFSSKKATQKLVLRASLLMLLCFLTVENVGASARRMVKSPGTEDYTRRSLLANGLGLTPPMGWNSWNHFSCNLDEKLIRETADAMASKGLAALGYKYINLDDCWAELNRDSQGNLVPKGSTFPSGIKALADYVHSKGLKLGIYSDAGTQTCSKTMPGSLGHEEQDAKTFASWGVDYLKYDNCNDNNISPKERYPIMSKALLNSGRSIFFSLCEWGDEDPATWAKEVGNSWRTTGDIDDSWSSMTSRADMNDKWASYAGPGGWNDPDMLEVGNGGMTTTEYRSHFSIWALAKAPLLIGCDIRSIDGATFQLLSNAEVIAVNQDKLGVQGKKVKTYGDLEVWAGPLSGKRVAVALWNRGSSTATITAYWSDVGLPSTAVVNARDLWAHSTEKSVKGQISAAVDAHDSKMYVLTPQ

## OC[C@@H]1NC[C@H](O)[C@@H](O)[C@H]1O
[1]
  inhibition: < 50%
[2]
  inhibition: < 50%
[3]
  inhibition: < 50%
[4]
  inhibition: < 50%
[5]
  inhibition: < 50%
[6]
  inhibition: < 50%
[7]
  inhibition: < 50%

## C[C@@H]1NC[C@@H](O)[C@H](O)[C@@H]1O [DEOXYFUCONOJIRIMYCIN]
[8]
  Ki: 1.7 nM

## OC[C@H]1NC[C@@H](O)[C@H](O)[C@@H]1O
[2]
  inhibition: < 50%
[4]
  inhibition: < 50%
[5]
  inhibition: < 50%
[6]
  inhibition: < 50%
[7]
  inhibition: < 50%
